Assays:
[1] = system: guinea pig lung parenchymal tissue; test: Immunologically Mediated Contraction of the Parenchymal Strip (IMCPS); design: species or system guinea pig (male Hartley strain); details: Cavia porcellus, egg albumin induced contraction of sensitized guinea pig lung parenchymal strip, with chlorpheniramine 10.0 μM and indomethacin 100.0 μM, relative to control tissue, read-out: IMCPS % inhib. 100 μM
Method: (a) Immunologically Mediated Contraction of the Parenchymal Strip (IMCPS)
It is a modification of the procedure published by K. Forsberg and L. Sorenby in Agents and Actions, Vol. 9 pp. 364-368 (1978). In this test, male Hartley strain guinea pigs weighing 400 to 600 g were sensitized by subcutaneous administration of chicken egg albumin (Sigma A-5503, 1.0 mg, 0.5% solution) and bordetella pertussis, 11×10^9 cells (Massachusetts Public Health Biological Labs) 4 to 8 weeks prior to the experiment. The animals were sacrificed, the heart and lungs were removed en bloc and placed in Krebs solution at room temperature. Lung strips (2.5 cm in length) were cut from the peripheral edge of each lobe. Two strips were removed from each animal and were trimmed to be of equal length. Each strip was suspended in an isolated organ bath (10.0 ml) containing oxygenated Krebs buffer solution at 37.5° C. then attached to a force displacement transducer (Grass FT03) and placed under an initial tension of 1.0 g. The tissues were allowed to equilibrate for 45-60 minutes, during which the bathing solution was changed several times. At the end of the equilibration period, chlorpheniramine (10.0 μM) and indomethacin (100.0 μM) were added to eliminate the contribution of histamine and prostaglandins to the contractile response. The two tissues from each animal were matched so that one tissue served as a control, and the test drug dissolved in DMSO was added to the bath containing the other tissue at a final concentration of 100 μM. After 30 minutes, egg albumin was added to each bath and the contractile response was measured as milligrams of tension developed as recorded on a Grass Model 7D polygraph.

[2] = system: lipoxygenase metabolites released or generated from human granulocyte cells; test: Human Granulocyte Assay for Lipoxygenase Products (HGALP); type: cell-based; details: [3H]-arachidonic acid prelabeled human granulocytes, 10 μM ionophore A23187 challenge, 14 μM indomethacin
Method: (b) Human Granulocyte Assay for Lipoxygenase Products (HGALP)
This test is a measurement of the inhibition of the synthesis or release of [3H]-labeled lipoxygenase metabolites released or generated from human granulocyte cells that are prelabeled with [3H]-arachidonic acid. These metabolites include the leukotrienes (e.g., LTB4) which are potent mediators of inflammation and allergy. In this test, a granulocyte enriched fraction is prepared from freshly drawn human blood (50 ml/donor) by standard techniques involving unit gravity separation on ficoll hypaque. Cells are prelabeled with [3H]-arachidonic acid (20 μCi in 2 ml cell suspension) during a 30 min. incubation at 37° C. After washing out unincorporated label, the radiolabeled cells are brought up in incubation buffer (Minimum Essential Medium containing 14 μM indomethacin) to a 10^7 cell/ml concentration. Cell suspensions (1 ml/sample) are preincubated for 5 min. in the presence or absence of test drugs delivered in 5 μl dimethylsulfoxide (DMSO). Cell suspensions are challenged with 10 μM ionophore A23187 to activate the calcium-dependent metabolism of [3H]-arachidonic acid. After a 5 min. incubation at 37° C., incubations are terminated by the addition of 1 ml ice cold phosphate buffered saline, and cells are pelleted by centrifugation. Supernatants are passed through C18 Sep Pak® cartridges which are then washed twice with 1 ml water. Lipoxygenase metabolites are eluted with two 1 ml volumes of methanol. Eluates are collected in scintillation vials and counted in Aqueous Counting Scintillant (ACS). Radioactivity eluted with methanol is a measure of lipoxygenase metabolites. Values are normalized to vehicle (5 μl DMSO) treated controls and expressed as percent inhibition. Triplicate determinations at each drug concentration are analyzed as log-dose response curves by linear regression analysis from which IC50 values are derived.

[3] = system: lipoxygenase metabolites released or generated from human granulocyte cells; test: as above; type: cell-based; details: [3H]-arachidonic acid prelabeled human granulocytes, 10 μM ionophore A23187

With CC(C)(/C=C\CCCC(=O)O)COCc1ccccc1 [Example 1c, 7,7-Dimethyl-8-(phenylmethoxy)-5(Z)-octenoic Acid] the inhibition at 100 µM [1] was 79%.
In the case of CN(C)C(=O)CCC/C=C\C(C)(C)COCc1ccccc1 [Example 2, N,N,7,7-Tetramethyl-8-(phenylmethoxy)-5(Z)-octenamide], the IC50 [2] is reported as 42 µM and the inhibition at 100 µM [1] is reported as 19%.
CC(C)(/C=C\CCCCO)COCc1ccccc1 [Example 4, 7,7-Dimethyl-8-(phenylmethoxy)-5(Z)-octenol] was tested, and the IC50 [2] was 17 µM and the inhibition at 100 µM [1] was 38%.
COc1ccc(COCC(C)(C)/C=C\CCCC(=O)O)cc1 [Example 5c, 7,7-Dimethyl-8-(4-methoxyphenylmethoxy)-5(Z)-octenoic Acid] gave an inhibition at 100 µM [3] of 18% and an inhibition at 100 µM [1] of 31%.
COC(=O)CCC/C=C\C(C)(C)COCc1ccc(O)cc1 [Example 6, Methyl 7,7-dimethyl-8-(4-hydroxyphenylmethoxy)-5(Z)-octenoate] gave an IC50 [2] of 39 µM and an inhibition at 100 µM [1] of 49%.
Molecule CC(C)(/C=C\CCCC(=O)O)COCc1ccc(O)cc1 [Example 7, 7,7-Dimethyl-8-(4-hydroxyphenylmethoxy)-5(Z) Octenoic Acid] has an IC50 [2] of 255 µM and an inhibition at 100 µM [1] of 4%.
With COC(=O)CCC/C=C\C(C)(C)C=Cc1ccc(Cl)cc1 [Example 8c, Methyl 9-(4-chlorophenyl)-7,7-dimethyl-5(Z),8-nonadienoate] the IC50 [2] was 6.6 µM and the inhibition at 100 µM [1] was 15%.
CC(C)(C=Cc1ccc(Cl)cc1)/C=C\CCCC(=O)O [Example 9, 9-(4-Chlorophenyl)-7,7-dimethyl-5(Z),8-nonadienoic acid] was tested, and the IC50 [2] was 19 µM and the inhibition at 100 µM [1] was 76%.
For CC(C)(/C=C\CCCC(=O)O)COCC=Cc1ccccc1 [Example 10c, 7,7-Dimethyl-8-(3-phenyl-2-propenoxy)-5(Z) octenoic Acid], the inhibition at 100 µM [3] was 5% and the inhibition at 100 µM [1] was 44%.
In the case of CCCC=Cc1ccccc1COCC(C)(C)/C=C\CCCC(=O)O [Example 11g, 7,7-Dimethyl-8-[2(1-pentenyl)phenylmethoxy]-5(Z)octenoic acid], the IC50 [2] is reported as 96 µM and the inhibition at 100 µM [1] is reported as 40%.
